Measurements: patent US10980889B1 (Revolution Medicines, Inc., priority 2018, dated 2021)

Tests used:
P-4E-BP1 (T37/46) = test: Cell based AlphaLISA assay, inhibition of P-4E-BP1 (T37/46) in MDA-MB-468 cells (mTORC1 substrate); details: Homo sapiens, 4 h, AlphaLisa, two to four hours at 37° C., read-out: pIC50 for Inhibition of mTORC1 and mTORC2 Substrate Phosphorylation P-4E-BP1-(T37/46) (converted)
Procedure: (§1) Cell Based AlphaLISA Assays For Determining IC50 For Inhibition of P-Akt (S473), P-4E-BP1(T37/46), and P-P70S6K (T389) in MDA-MB-468 Cells
(§2) mTOR Kinase Cellular Assay
(§3) To measure functional activity of mTORC1 and mTORC2 in cells the phosphorylation of 4EBPT (Thr37/46) and P70S6K (Thr389), and AKT1/2/3 (Ser473) was monitored using AlphaLisa SureFire Ultra Kits (Perkin Elmer). […] Incubations were terminated by removal of the assay buffer and addition of lysis buffer provided with the assay kit. Samples were processed according to the manufacturer's instructions. The Alpha signal from the respective phosphoproteinswas measured in duplicate using a microplate reader (Envision, Perkin-Elmer or Spectramax M5, Molecular Devices). Inhibitor concentration response curves were analyzed using normalized IC50 regression curve filling with control based normalization.

P-P70S6K (T389) = test: Cell based AlphaLISA assay, inhibition of P-P70S6K (T389) in MDA-MB-468 cells (mTORC1 substrate); details: Homo sapiens, 4 h, AlphaLisa, two to four hours at 37° C., read-out: pIC50 for Inhibition of mTORC1 and mTORC2 Substrate Phosphorylation p-P70S6K-(T389) (converted)
Procedure: as §1, §2, §3

P-Akt (S473) = test: Cell based AlphaLISA assay, inhibition of P-Akt (S473) in MDA-MB-468 cells (mTORC2 substrate); details: Homo sapiens, 4 h, AlphaLisa, two to four hours at 37° C., read-out: pIC50 for Inhibition of mTORC1 and mTORC2 Substrate Phosphorylation p-AKT1/2/3-(S473) (converted)
Procedure: as §1, §2, §3

| Compound | IC50 (P-4E-BP1 (T37/46)) | IC50 (P-P70S6K (T389)) | IC50 (P-Akt (S473)) |
| --- | --- | --- | --- |
| CO[C@H]1C[C@@H]2CC[C@@H](C)[C@@](O)(O2)C(=O)C(=O)N2CCCCC2C(=O)O[C@H]([C@H](C)C[C@@H]2CC[C@@H](OC(=O)NCc3cnc(N4CCN(C(=O)CN(C)CC(=O)NCCOCCOCCC(=O)NCCCCn5nc(-c6ccc7oc(N)nc7c6)c6c(N)ncnc65)CC4)nc3)[C@H](OC)C2)C[C@@H](OC)[C@H](C)/C=C(\C)[C@@H](O)[C@@H](OC)C(=O)[C@H](C)C[C@H](C)/C=C/C=C/C=C/1C (stereo partly drawn) [Example 92] | < 3.16 nM | < 1 nM | 3.16 to 31.6 nM |
| CO[C@H]1C[C@@H]2CC[C@@H](C)[C@@](O)(O2)C(=O)C(=O)N2CCCC[C@H]2C(=O)O[C@H]([C@H](C)C[C@@H]2CC[C@@H](OC(=O)NCc3cnc(N4CCN(c5ncc(C(=O)NCCOCCOCCOCCOCCC(=O)N6CCc7cc(Cn8nc(-c9ccc%10oc(N)nc%10c9)c9c(N)ncnc98)ccc7C6)c(N)n5)CC4)nc3)[C@H](OC)C2)C[C@@H](OC)[C@H](C)/C=C(\C)[C@@H](O)[C@@H](OC)C(=O)[C@H](C)C[C@H](C)/C=C/C=C/C=C/1C [Example 94] | < 3.16 nM | < 1 nM | < 3.16 nM |
| CO[C@H]1C[C@@H]2CC[C@@H](C)[C@@](O)(O2)C(=O)C(=O)N2CCCC[C@H]2C(=O)O[C@H]([C@H](C)C[C@@H]2CC[C@@H](OC(=O)NCc3cnc(N4CCN(c5ncc(C(=O)N(C)CCOCCOCCOCCOCCC(=O)N6CCc7cc(Cn8nc(-c9ccc%10oc(N)nc%10c9)c9c(N)ncnc98)ccc7C6)c(N)n5)CC4)nc3)[C@H](OC)C2)C[C@@H](OC)[C@H](C)/C=C(\C)[C@@H](O)[C@@H](OC)C(=O)[C@H](C)C[C@H](C)/C=C/C=C/C=C/1C [Example 95] | < 3.16 nM | < 1 nM | 3.16 to 31.6 nM |
| CO[C@H]1C[C@@H]2CC[C@@H](C)[C@@](O)(O2)C(=O)C(=O)N2CCCC[C@H]2C(=O)O[C@H]([C@H](C)C[C@@H]2CC[C@@H](OC(=O)NCc3cnc(N4CCN(c5ncc(C(=O)NCCOCCOCCOCCOCCC(=O)N6CCc7cc(Cn8nc(-c9cnc%10[nH]ccc%10c9)c9c(N)ncnc98)ccc7C6)c(N)n5)CC4)nc3)[C@H](OC)C2)CC(=O)[C@H](C)/C=C(\C)[C@@H](O)[C@@H](OC)C(=O)[C@H](C)C[C@H](C)/C=C/C=C/C=C/1C [Example 96] | < 3.16 nM | < 1 nM | 31.6 to 1000 nM |
| CO[C@H]1C[C@@H]2CC[C@@H](C)[C@@](O)(O2)C(=O)C(=O)N2CCCC[C@H]2C(=O)O[C@H]([C@H](C)C[C@@H]2CC[C@@H](OC(=O)N3CCc4nc(N5CCN(c6ncc(C(=O)NCCOCCOCCOCCOCCC(=O)N7CCc8cc(Cn9nc(-c%10cnc%11[nH]ccc%11c%10)c%10c(N)ncnc%109)ccc8C7)c(N)n6)CC5)ncc4C3)[C@H](OC)C2)CC(=O)[C@H](C)/C=C(\C)[C@@H](O)[C@@H](OC)C(=O)[C@H](C)C[C@H](C)/C=C/C=C/C=C/1C [Example 97] | < 3.16 nM | < 1 nM | 3.16 to 31.6 nM |
| CO[C@H]1C[C@@H]2CC[C@@H](C)[C@@](O)(O2)C(=O)C(=O)N2CCCC[C@H]2C(=O)O[C@H]([C@H](C)C[C@@H]2CC[C@@H](OC(=O)NC3CCN(CC(=O)NCCOCCOCCOCCOCCOCCOCCC(=O)N4CCc5cc(Cn6nc(-c7ccc8oc(N)nc8c7)c7c(N)ncnc76)ccc5C4)CC3)[C@H](OC)C2)C[C@@H](O)[C@H](C)/C=C(\C)[C@@H](O)[C@@H](OC)C(=O)[C@H](C)C[C@H](C)/C=C/C=C/C=C/1C [Example 98] | < 3.16 nM | < 1 nM | 3.16 to 31.6 nM |
| CO[C@H]1C[C@@H]2CC[C@@H](C)[C@@](O)(O2)C(=O)C(=O)N2CCCC[C@H]2C(=O)O[C@H]([C@H](C)C[C@@H]2CC[C@@H](OC(=O)NC3CCN(CC(=O)NCCOCCOCCOCCOCCOCCOCCC(=O)N4CCc5cc(Cn6nc(-c7ccc8oc(N)nc8c7)c7c(N)ncnc76)ccc5C4)CC3)[C@H](OC)C2)C[C@@H](OC)[C@H](C)/C=C(\C)[C@@H](O)[C@@H](OC)C(=O)[C@H](C)C[C@H](C)/C=C/C=C/C=C/1C [Example 99] | < 3.16 nM | < 1 nM | > 1000 nM |
